Some test systems named below: SF-295; SK-MEL-28; COLO 205; SR; NCI-H522; Hs-578T; HT-29; OVCAR-8; SN12C; PC-3; CAKI-1; MDA-N; T47D; MOLT-4; KM12; SK-MEL-5; ACHN; A498; IGROV-1; HOP-92.
Common to all, as to experiment: inhibition of tumour cell growth, NCI panel, 48 h

SMILES strings stand for the structures.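 Protocol summary: plate cells (96-well), add compound at 5 concentrations, incubate 48 h, interpolate endpoints linearly. The concentration for 50% growth inhibition is given as GI50.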 Activity calls are given as the source filed them. No stated cut-off is given here; in the data, active = GI50 up to about 1.1 µM and inactive = higher.

Take `Cn1cnc([N+](=O)[O-])c1Sc1nnc(-c2cccnc2)n1C`: the GI50 with SF-295 is > 100 µM (inactive); in the assay with SK-MEL-28, 17.5 µM (inactive); in the assay with COLO 205, 15.3 µM (inactive); in the assay with SR, 15.3 µM (inactive); with NCI-H522, 5.78 µM (inactive); with Hs-578T, 34.7 µM (inactive). In addition, the GI50 in the assay with HT-29 is 17.4 µM (inactive); in the assay on OVCAR-8 it was 21.3 µM (inactive); with SN12C, 25.4 µM (inactive); in the assay with PC-3, 25 µM (inactive); in the assay with CAKI-1 it was 25.4 µM (inactive); with MDA-N, 19.5 µM (inactive). For the same compound, the GI50 in the assay on T47D is 12.6 µM (inactive); with MOLT-4, 18.2 µM (inactive); with KM12, > 82 µM (inactive); in the assay with SK-MEL-5, 16.9 µM (inactive); with ACHN, 17.1 µM (inactive); with A498, > 79.1 µM (inactive). Moreover, the GI50 in the assay on IGROV-1 is 68.5 µM (inactive); with HOP-92, 14.5 µM (inactive).

`COc1ccc([C@H]2C=C(c3cc(F)c(Cl)cc3Cl)NC(=S)N2)cc1`: the GI50 in the assay with SF-295 was 24.3 µM (inactive); in the assay with SK-MEL-28 it was 47 µM (inactive); in the assay on COLO 205, 19.1 µM (inactive); in the assay with SR, 5.24 µM (inactive); with NCI-H522, 31.8 µM (inactive); in the assay with Hs-578T it was 79.1 µM (inactive). In addition, the GI50 in the assay with HT-29 is 26.2 µM (inactive); with OVCAR-8 it was 40.3 µM (inactive); in the assay with SN12C, 21.3 µM (inactive); in the assay with PC-3, 19.9 µM (inactive); in the assay on CAKI-1, 29.4 µM (inactive); in the assay with MDA-N it was 11.1 µM (inactive). Also, the GI50 was 18.7 µM (inactive) with T47D; 17.7 µM (inactive) in the assay with MOLT-4; 29.2 µM (inactive) with KM12; 11.9 µM (inactive) in the assay on SK-MEL-5; 36.9 µM (inactive) in the assay with ACHN; 28.1 µM (inactive) with A498. Also, the GI50 is 31.4 µM (inactive) in the assay on IGROV-1 and 24 µM (inactive) in the assay with HOP-92.

Consider `NC1=NCC(CN2CCOCC2)O1` (stereo not given), for which the GI50 with SF-295, in the assay with SK-MEL-28, with COLO 205, in the assay on SR, in the assay on NCI-H522 and in the assay with Hs-578T was > 100 µM (inactive) throughout. The GI50 in the assay with HT-29, with OVCAR-8, in the assay on SN12C, with PC-3, in the assay with CAKI-1 and with MDA-N was > 100 µM (inactive) in each case. For the same compound, the GI50 in the assay on T47D, in the assay with MOLT-4, in the assay on KM12, with SK-MEL-5, in the assay with ACHN and in the assay on A498 was > 100 µM (inactive) in each case. For the same compound, the GI50 in the assay on IGROV-1 and in the assay with HOP-92 was > 100 µM (inactive) in each case.

For `COc1ccc(NC(=O)CC(=O)N2N=C(c3ccccc3)C(/N=N/c3ccc(S(=O)(=O)CCOS(=O)(=O)O)cc3)C2=O)cc1` (stereo not given), the GI50 with SF-295, in the assay on SK-MEL-28, in the assay with COLO 205, in the assay on SR, in the assay with NCI-H522 and with Hs-578T was > 100 µM (inactive) each time. Moreover, the GI50 in the assay with HT-29, in the assay with OVCAR-8, with SN12C, in the assay on PC-3, in the assay with CAKI-1 and with MDA-N was > 100 µM (inactive) each time. In addition, the GI50 in the assay on T47D, with MOLT-4, in the assay on KM12, in the assay with SK-MEL-5, in the assay on ACHN and with A498 was > 100 µM (inactive) in each case. The GI50 in the assay with IGROV-1 and in the assay on HOP-92 was > 100 µM (inactive) throughout.

Consider `CNC(=S)N/N=C(\C)c1ccc(OC)cc1O`, for which the GI50 in the assay with SF-295 was > 100 µM (inactive); with SK-MEL-28, > 100 µM (inactive); in the assay on COLO 205, 0.258 µM (active); in the assay on SR, 29.3 µM (inactive); in the assay with NCI-H522 it was 2.72 µM (inactive); with Hs-578T it was > 89.9 µM (inactive). The GI50 in the assay on HT-29 is 0.337 µM (active); with OVCAR-8 it was > 100 µM (inactive); in the assay on SN12C it was > 91.4 µM (inactive); in the assay with PC-3 it was > 100 µM (inactive); with CAKI-1, > 100 µM (inactive); in the assay on MDA-N it was > 100 µM (inactive). For the same compound, the GI50 is > 100 µM (inactive) with T47D; 3.33 µM (inactive) with MOLT-4; > 100 µM (inactive) with KM12; 7.45 µM (inactive) with SK-MEL-5; > 100 µM (inactive) with ACHN; 95.7 µM (inactive) in the assay on A498. The GI50 was 22.5 µM (inactive) in the assay on IGROV-1 and > 100 µM (inactive) in the assay with HOP-92.

Take `COC(=O)/C=C1\C(=O)N(C(C)=O)c2ccc(Br)cc21`: the GI50 in the assay on SF-295 is 16.9 µM (inactive); in the assay with SK-MEL-28, 14.5 µM (inactive); in the assay on COLO 205, 13.7 µM (inactive); with SR, 2.8 µM (inactive); in the assay on NCI-H522, 3.73 µM (inactive); with Hs-578T it was 8.39 µM (inactive). Moreover, the GI50 with HT-29 was 8.87 µM (inactive); in the assay with OVCAR-8, 8.43 µM (inactive); in the assay on SN12C it was 5.71 µM (inactive); with PC-3, 8.75 µM (inactive); in the assay with CAKI-1, 21.3 µM (inactive); in the assay with MDA-N, 11 µM (inactive). Also, the GI50 with T47D was 5.02 µM (inactive); with MOLT-4, 3.03 µM (inactive); in the assay on KM12, 14.3 µM (inactive); in the assay on SK-MEL-5, 9.68 µM (inactive); in the assay with ACHN it was 11.6 µM (inactive); with A498, 21.9 µM (inactive). Further, the GI50 is 7.6 µM (inactive) with IGROV-1 and 13.6 µM (inactive) in the assay with HOP-92.

In the case of `CCC(=O)OCOc1ccc(/C=C2\CCC(CN(C)C)C2=O)cc1` (stereo not given), the GI50 was 8.85 µM (inactive) with SF-295; 4.29 µM (inactive) in the assay with SK-MEL-28; 3.78 µM (inactive) in the assay with COLO 205; 2.15 µM (inactive) with SR; 1.93 µM (inactive) in the assay on NCI-H522; 6.27 µM (inactive) in the assay on Hs-578T. Also, the GI50 in the assay on HT-29 was 6.31 µM (inactive); in the assay on OVCAR-8 it was 4.19 µM (inactive); in the assay on SN12C it was 2.72 µM (inactive); in the assay on PC-3, 14.2 µM (inactive); in the assay with CAKI-1, 4.67 µM (inactive); in the assay with MDA-N it was 5.47 µM (inactive). Also, the GI50 was 3.52 µM (inactive) in the assay on T47D; 2.51 µM (inactive) in the assay with MOLT-4; 3.9 µM (inactive) in the assay on KM12; 11.7 µM (inactive) in the assay on SK-MEL-5; 7.73 µM (inactive) in the assay with ACHN; 15.9 µM (inactive) in the assay with A498. Besides, the GI50 in the assay on IGROV-1 was 6.44 µM (inactive); in the assay on HOP-92, 11 µM (inactive).

For the origin of these results see ChEMBL document CHEMBL1201862, “PubChem BioAssay data set” (2004).
